As usually defined, the Cmax is the highest concentration seen after dosing. The term Tmax denotes the time from dosing to the highest level. As usually defined, the half-life is the time needed for the level to fall by half in the phase considered. The low end stands for rapid decline, the high end for slow decline. Broadly, the AUC(0-t) is exposure summed from dosing to a finite time, without extrapolation to infinity. Low values mean less exposure, high ones more exposure. One may read the bioavailability as the share of a dose that reaches the circulation, judged against a reference dose that is usually intravenous.

Data set [1] can be described thus: PK profile of compound AZ002. The settings on record: in vivo. An excerpt: In some instances, compounds of the invention are provided as a pharmaceutical acceptable salt. Suitable pharmaceutical acceptable salts include those disclosed herein. In some embodiments, pharmaceutically acceptable salts of compounds of the invention provide a better pharmacokinetics.

Data set [2] has as its system TTX-S NaV1.7 currents in rat DRGs. The experiment in a line: Patch clamp TTX-S NaV1.7 currents in rat DRGs. The class given is cell-based. The following applies: FIG. 5. Here is the method:
Culturing and Transfection of rat Primary Dorsal Root Ganglia (DRG) Neurons: Rat DRG neurons were isolated from 150-174 g Sprague-Dawley rats and then transfected using known procedures. In brief, removing dorsal skin and muscle and cutting the vertebral bone processes parallel to the dissection stage exposed DRGs. DRGs were then collected, trimmed at their roots, and digested in 3 ml bicarbonate free, serum free, sterile DMEM (Cat #11965, Thermo Fisher Scientific, Waltham, Mass.) solution containing neutral protease (3.125 mg·ml-1, Cat #LS02104, Worthington, Lakewood, N.J.) and collagenase Type I (5 mg·ml-1, Cat #LS004194, Worthington, Lakewood, N.J.) and incubated for 45 min at 37° C. under gentile agitation. Dissociated DRG neurons (˜1.5×106) were then gently centrifuged to collect cells and washed with DRG media DMEM containing 1% penicillin/streptomycin sulfate from 10 000 μg/ml stock, 30 ng.ml-1 nerve growth factor, and 10% fetal bovine serum (Hyclone). Collected cells were re-suspended in Nucleofector transfection reagent containing plasmids or siRNA at the working concentrations listed above. Then, cells were subjected to electroporation protocol O-003 in an Amaxa Biosystem (Lonza, Basel, Switzerland) and plated onto poly-D-lysine—and laminin-coated glass 12- or 15-mm coverslips. Transfection efficiencies were routinely between 20% and 30% with about ˜10% cell death. […]

The subject of data set [3] is TTX-S NaV1.7 currents in human DRGs. The experiment in a line: Patch clamp H-infinity subtracted NaV1.7 currents in human DRGs. The class given is cell-based. The following applies: FIG. 5. The protocol: Patch Clamp Electrophysiology: Whole cell voltage clamp and current clamp recordings were performed at room temperature using an EPC 10 Amplifier-HEKA. The internal solution for voltage clamp CAD cell recordings contained (in mM): 110CsCl, 5 MgSO4, 10 EGTA, 4 ATP Na2-ATP, and 25 HEPES (pH 7.3, 290-310 mOsm/L) and external solution contained (in mM): 100 NaCl, 10 tetraethylammonium chloride, 1 CaCl2, 1 CdCl2, 1 MgCl2, 10 D-glucose, 4 4-aminopyridine, 0.1 NiCl2, 10 HEPES (pH 7.3, 310-315 mosM/L). For DRG and HEK293 cells the internal solution for voltage clamp contained (in mM): 140CsF, 1.1Cs-EGTA, 10 NaCl, and 15 HEPES (pH 7.3, 290-310 mOsm/L) and external solution contained (in mM): 140 NaCl, 3 KCl, 30 tetraethylammonium chloride, 1 CaCl2, 0.5 CdCl2, 1 MgCl2, 10 D-glucose, 10 HEPES (pH 7.3, 310-315 mosM/L). […]
Voltage clamp protocols: CAD and HEK293 cells were subjected to current-density (I-V) and fast-inactivation voltage protocols. […] The TTX-R peak current density was always measured at depolarizations near 0 mV and within 10 ms of the voltage step protocol. […] Thus, sodium current present at 150 ms following a voltage pulse to −60 mV was analyzed, an established method of isolating Nav1.9 current. […]

Data set [4] concerns human DRGs in a mixed glia-DRG co-culture. The experiment in a line: Cell morphology or health of human DRGs after overnight incubation. The data set is classed as cell-based.
Data set [5] has as its system spared nerve injury model of neuropathic pain. The experiment in a line: Spared nerve injury model, mechanical hypersensitivity (paw withdrawal threshold). The following applies: spinal administration 5 μg/10 μL; 7 days post-injury; n=6. The data set is classed as in vivo, rat. Here is the method: Rat Behavioral Pain Assay: Compound AZ002 reversed mechanical hypersensitivity in a model of nerve-injury induced chronic pain.
Data was analyzed using one-way ANOVA followed by Dunnett's Multiple Comparison Test using post injury baseline as control.
Indwelling intrathecal catheter: Rats were anesthetized (ketamine/xylazine anesthesia, 80/12 mg/kg i.p.; Sigma-Aldrich) and placed in a stereotaxic head holder. The cisterna magna was exposed and incised, and an 8-cm catheter (PE-10; Stoelting) was implanted terminating in the lumbar region of the spinal cord. Catheters were sutured (3-0 silk suture) into the deep muscle and externalized at the back of the neck; skin was closed with autoclips. After a recovery period of 5-7 days after implantation of the indwelling cannula, the spared nerve injury was induced.
Spared Nerve Injury (SNI): Under isoflurane anesthesia (5% induction, 2.0% maintenance in 2 L/min air), skin on the lateral surface of the left hind thigh was incised. […]
Mechanical Allodynia: Rats were allowed to acclimate within suspended wire mesh cages for 30 minutes prior to behavioral assessment. […] Paw withdrawal thresholds were calculated in grams using the Dixon non-parametric test and expressed as the Paw Withdrawal Threshold (mean±standard error; SEM) in GraphPad Prism 6.0. […]

In the case of `COc1cc(OC)cc(C(=O)Nc2ccc(N3CCN(C)CC3)cc2)c1` [AZ002], in data set [1], the peak level (Cmax) was 0.263 µg/mL, the Tmax was determined as 2 h and the half-life was 5.8 h. In addition, in data set [1] (0-24 hr), the exposure AUC(0-t) was found to be 2.38 µg·h/mL. The bioavailability in data set [1] (read-out: bioavailability (F)) was determined as 31%. In data set [2], the “inhibition of TTX-S NaV1.7 currents” value is reported as “inhibits”. The “inhibition of TTX-S NaV1.7 currents” value in data set [3] is recorded as “inhibits”. Further, the “effect on cell morphology or health” value in data set [4] is recorded as “does not affect cell morphology or health”. In data set [5], the “reversal of mechanical hypersensitivity” value is listed as “significantly reversed”.

The values above are taken from US11020391B2, “CRMP2 sumoylation inhibitors and uses thereof” (ARIZONA BOARD OF REGENTS ON BEHALF OF THE UNIVERSITY OF …, priority 2015, dated 2021).
